Results: ChEMBL document CHEMBL3616377, “2-(3'-Indolyl)-N-arylthiazole-4-carboxamides: Synthesis and evaluation of antibacterial and anticancer activities” (Bioorg Med Chem Lett, 2015)
Converted amounts (≈) assume the structure as drawn. The source made the active and inactive calls. No cut-off for these calls is given here.

Key:
[1] = test system: HeLa; assay: Cytotoxicity against human HeLa cells after 48 hrs by MTT assay in absence of 10% FBS; assay type: functional, cell-based
[2] = test system: PC-3; assay: Cytotoxicity against human PC3 cells after 48 hrs by MTT assay in absence of 10% FBS; assay type: functional, cell-based; details: PC-3, 48 h
[3] = test system: MDA-MB-231; assay: Cytotoxicity against human MDA-MB-231 cells after 48 hrs by MTT assay in absence of 10% FBS; assay type: functional, cell-based; details: MDA-MB-231, 48 h
[4] = test system: LNCaP; assay: Cytotoxicity against human LNCAP cells after 48 hrs by MTT assay in absence of 10% FBS; assay type: functional, cell-based
[5] = test system: Staphylococcus aureus; assay: Antibacterial activity against Staphylococcus aureus MTCC 96 after 18 to 24 hrs by broth microdilution method; assay type: functional
[6] = test system: Staphylococcus aureus; assay: Antibacterial activity against Staphylococcus aureus MTCC 96 after 18 to 24 hrs by agar well diffusion method; assay type: functional
[7] = test system: Bacillus subtilis; assay: Antibacterial activity against Bacillus subtilis MTCC 121 after 18 to 24 hrs by agar well diffusion method; assay type: functional
[8] = test system: Bacillus subtilis; assay: Antibacterial activity against Bacillus subtilis MTCC 121 after 18 to 24 hrs by broth microdilution method; assay type: functional
[9] = test system: Escherichia coli; assay: Antibacterial activity against Escherichia coli MTCC 1652 after 18 to 24 hrs by agar well diffusion method; assay type: functional
[10] = test system: Escherichia coli; assay: Antibacterial activity against Escherichia coli MTCC 1652 after 18 to 24 hrs by broth microdilution method; assay type: functional
[11] = test system: Pseudomonas putida; assay: Antibacterial activity against Pseudomonas putida MTCC 102 after 18 to 24 hrs by agar well diffusion method; assay type: functional
[12] = test system: Pseudomonas putida; assay: Antibacterial activity against Pseudomonas putida MTCC 102 after 18 to 24 hrs by broth microdilution method; assay type: functional
[13] = test system: Escherichia coli; assay: Bactericidal activity against Escherichia coli MTCC 1652 assessed as reduction of number of bacterial cells at 4 times MIC after 1 to 6 hrs; assay type: functional, organism-based
[14] = test system: Pseudomonas putida; assay: Bactericidal activity against Pseudomonas putida MTCC 102 assessed as reduction of number of bacterial cells at 4 times MIC after 1 to 6 hrs; assay type: functional, organism-based
[15] = test system: Escherichia coli; assay: Bactericidal activity against Escherichia coli MTCC 1652 assessed as reduction of number of bacterial cells at 4 times MIC after 2 to 3 hrs; assay type: functional, organism-based
[16] = test system: Pseudomonas putida; assay: Bactericidal activity against Pseudomonas putida MTCC 102 assessed as reduction of number of bacterial cells at 4 times MIC after 2 to 3 hrs; assay type: functional, organism-based
[17] = test system: HEK-293T; assay: Cytotoxicity against human HEK293T cells after 48 hrs by MTT assay in presence of 10% FBS; assay type: cell-based
[18] = Cytotoxicity against human castration-resistant C4-2 cells after 48 hrs by MTT assay in presence of 10% FBS; assay type: functional, cell-based; details: LNCaP C4-2, 48 h
[19] = test system: HeLa; assay: Cytotoxicity against human HeLa cells after 48 hrs by MTT assay in presence of 10% FBS; assay type: functional, cell-based
[20] = test system: PC-3; assay: Cytotoxicity against human PC3 cells after 48 hrs by MTT assay in presence of 10% FBS; assay type: functional, cell-based; details: PC-3, 48 h
[21] = test system: MDA-MB-231; assay: Cytotoxicity against human MDA-MB-231 cells after 48 hrs by MTT assay in presence of 10% FBS; assay type: functional, cell-based; details: MDA-MB-231, 48 h
[22] = test system: LNCaP; assay: Cytotoxicity against human LNCAP cells after 48 hrs by MTT assay in presence of 10% FBS; assay type: functional, cell-based
[23] = test system: HeLa; assay: Induction of apoptosis in human HeLa cells assessed as formation of apoptotic nuclei formation at 10 uM after 24 hrs using propidium iodide staining by fluorescence microscopy analysis; assay type: functional, cell-based
[24] = test system: HEK-293T; assay: Cytotoxicity against human HEK293T cells after 48 hrs by MTT assay in absence of 10% FBS; assay type: cell-based
[25] = Cytotoxicity against human castration-resistant C4-2 cells after 48 hrs by MTT assay in absence of 10% FBS; assay type: functional, cell-based; details: LNCaP C4-2, 48 h
[26] = Solubility of the compound in 0.05 to 0.1% DMSO; assay type: physicochemical
[27] = test system: SK-N-MC; assay: Cytotoxicity against human SK-N-MC cells by MTT assay; assay type: functional, cell-based
[28] = test system: HepG2; assay: Cytotoxicity against human HepG2 cells by MTT assay; assay type: functional, cell-based
[29] = test system: MCF7; assay: Cytotoxicity against human MCF7 cells by MTT assay; assay type: functional, cell-based
[30] = test system: Staphylococcus aureus; assay: Antibacterial activity against methicillin-resistant Staphylococcus aureus; assay type: functional

SMILES	IC50 [2] [µM]	IC50 [3] [µM]	IC50 [4] [µM]	MIC [5] [µg/mL]	inhibition zone (IZ) [6] [mm]	inhibition zone (IZ) [7] [mm]	MIC [8] [µg/mL]	inhibition zone (IZ) [9] [mm]	MIC [10] [µg/mL]	inhibition zone (IZ) [11] [mm]	MIC [12] [µg/mL]	Activity [13]	Activity [14]	Activity [15]	Activity [16]	IC50 [17] [µM]	IC50 [18] [µM]	IC50 [20] [µM]	IC50 [22] [µM]	Activity [23]	also measured
COc1ccc2[nH]cc(-c3nc(C(=O)Nc4cc(OC)c(OC)c(OC)c4)cs3)c2c1	94.3	> 100	> 100	100 (≈ 228 µM)	13	14	50 (≈ 114 µM)	18	12.5 (≈ 28.4 µM)	18	12.5 (≈ 28.4 µM)	Active	Active	Active	Active	8.74	> 100	> 100	84.8	Active	IC50 [1]: 29.6 µM; IC50 [19]: 9.98 µM; IC50 [21]: > 100 µM; IC50 [24]: 8.6 µM; IC50 [25]: > 100 µM
COc1ccc(NC(=O)c2csc(-c3c[nH]c4ccc(Br)cc34)n2)cc1	–	–	–	50 (≈ 117 µM)	14	15	50 (≈ 117 µM)	15	12.5 (≈ 29.2 µM)	16	12.5 (≈ 29.2 µM)	Active	Active	Active	Active	–	–	–	–	–	solubility [26]: Insoluble
COc1cccc2c1C(=O)c1c(O)c3c(c(O)c1C2=O)C[C@@](O)(C(=O)CO)C[C@@H]3O[C@H]1C[C@H](N)[C@H](O)[C@H](C)O1 [DOXORUBICIN]	7.65	6.03	6.46	–	–	–	–	–	–	–	–	–	–	–	–	0.75	0.57	9.8	7.4	Active	IC50 [24]: 0.84 µM; IC50 [25]: 1.02 µM
Cc1ccc(-c2nc(C(=O)Nc3ccccc3)cs2)cc1	–	–	–	–	–	–	–	–	–	–	–	–	–	–	–	–	–	–	–	–	IC50 [27]: 10 µM; IC50 [28]: 10 µM; IC50 [29]: 10 µM
Clc1ccc2ccc(-c3c[nH]c4ccc(Br)cc34)nc2c1	–	–	–	–	–	–	–	–	–	–	–	–	–	–	–	–	–	–	–	–	MIC [30]: < 1 µg/mL
